Data as given in PMC7830743 (Journal of medicinal chemistry, 2020).

What was measured:
[1] = tested on: tumor LDH activity (A673 flank xenograft); assay: In vivo LDHA activity in A673 xenograft tumor mouse model; details: single IV 50 mg/kg, A673 xenograft mice
[2] = tested on: MiaPaCa-2 cells; assay: Cytotoxicity assay in MiaPaCa-2 cells; format: cell-based; details: Homo sapiens, MIA PaCa-2, 48 h, read-out: MiaPaCa-2 cells Cytotox. IC50
[3] = target: LDHA (Homo sapiens, UniProt P00338); assay: Biochemical LDHA inhibition assay
[4] = target: LDHA with C-terminal HiBiT fusion tag (Homo sapiens, UniProt P00338); assay: SplitLuc CETSA; format: cell-based
[5] = tested on: A673 cells; assay: Cytotoxicity assay in A673 cells; format: cell-based, human; details: for IC50: Homo sapiens, A673, 48 h, read-out: A673 cells Cytotox. IC50
[6] = tested on: A673 cells; assay: Cellular lactate production assay in A673 cells; format: cell-based, human; details: for IC50: Homo sapiens, A673, 0.5 h, read-out: A673 cells lactate inh. IC50
[7] = tested on: MiaPaCa-2 cells; assay: Cellular lactate production assay in MiaPaCa-2 cells; format: cell-based; details: Homo sapiens, MIA PaCa-2, 0.5 h, read-out: MiaPaCa-2 cells lactate inh. IC50
[8] = Mouse pharmacokinetic studies; format: in vivo, CD1 mice; details: male, CD1, mouse, plasma, iv, 10 mg/kg
[9] = both cell lines (A673 and MiaPaCa-2)

| Structure (SMILES) | IC50 [3] [nM] | IC50 [4] [nM] | IC50 [6] [nM] | IC50 [7] [nM] | IC50 [5] [nM] | other results |
| --- | --- | --- | --- | --- | --- | --- |
| NS(=O)(=O)c1ccc(Cc2c(-c3cccc(C#Cc4ccc(C5CC5)s4)c3)nn(-c3nc(C(=O)O)cs3)c2CC2CC2)cc1F [Compound 56, 2-(5-(Cyclopropylmethyl)-3-(3-((5-cyclopropylthiophen-2-yl)-ethynyl)phenyl)-4-(3-fluoro-4-sulfamoylbenzyl)-1H-pyrazol-1-yl)-thiazole-4-carboxylic Acid] | – | – | – | – | – | effect on LDH activity in tumors (in words) [1]: moderate inhibition; inhibition of tumor LDH activity at 6 h postdose ([1]; 6 h): failed to maintain significant inhibition |
| NS(=O)(=O)c1ccc(Cc2c(-c3ccc(F)c(C#CC4(O)CCOC4)c3)nn(-c3nc(C(=O)O)cs3)c2CC2CC2)cc1F (stereo not shown) [Compound 31, 2-(5-(Cyclopropylmethyl)-3-(4-fluoro-3-((3-hydroxytetrahydrofuran-3-yl)ethynyl)phenyl)-4-(3-fluoro-4-sulfamoylbenzyl)-1H-pyrazol-1-yl)thiazole-4-carboxylic Acid] | 5 | 815 | 5940 | 3870 | 2640 | IC50 [2]: 1740 nM |
| C#Cc1cc(-c2nn(-c3nc(C(=O)O)cs3)c(CC3CC3)c2Cc2ccc(S(N)(=O)=O)c(F)c2)ccc1F [Compound 11, 2-(5-(Cyclopropylmethyl)-3-(3-ethynyl-4-fluorophenyl)-4-(3-fluoro-4-sulfamoylbenzyl)-1H-pyrazol-1-yl)thiazole-4-carboxylic Acid] | – | – | – | – | – | loss in potency in cytotoxicity relative to 10 [5, 9]: < 3 fold; loss in potency toward lactate output relative to 10 [6, 9]: < 2 fold |
| C=C(c1cc(-c2nn(-c3nc(C(=O)O)cs3)c(CC3CC3)c2Cc2ccc(S(N)(=O)=O)c(F)c2)ccc1F)C(F)(F)F [Compound 73, 2-(5-(Cyclopropylmethyl)-3-(4-fluoro-3-(3,3,3-trifluoroprop-1-en-2-yl)phenyl)-4-(3-fluoro-4-sulfamoylbenzyl)-1H-pyrazol-1-yl)-thiazole-4-carboxylic Acid] | 39 | 398 | 713 | 972 | 16000 | – |
| Cc1ccc(C#Cc2cccc(-c3nn(-c4nc(C(=O)O)cs4)c(CC4CC4)c3Cc3ccc(S(N)(=O)=O)c(F)c3)c2)o1 [Compound 61, 2-(5-(Cyclopropylmethyl)-4-(3-fluoro-4-sulfamoylbenzyl)-3-(3-((5-methylfuran-2-yl)ethynyl)phenyl)-1H-pyrazol-1-yl)thiazole-4-carboxylic Acid] | – | – | – | – | – | clearance at 24 h [8]: 72.3 mL/min/kg |
| C/C=C/c1cc(-c2nn(-c3nc(C(=O)O)cs3)c(CC3CC3)c2Cc2ccc(S(N)(=O)=O)c(F)c2)ccc1F [Compound 71, (E)-2-(5-(Cyclopropylmethyl)-3-(4-fluoro-3-(prop-1-en-1-yl)phenyl)-4-(3-fluoro-4-sulfamoylbenzyl)-1H-pyrazol-1-yl)thiazole-4carboxylic Acid] | – | – | – | – | – | effect on LDH activity in tumors (in words) [1]: less effects |
| Cc1ccc(C#Cc2cc(-c3nn(-c4nc(C(=O)O)cs4)c(CCC4CC4)c3Cc3ccc(S(N)(=O)=O)c(F)c3)ccc2F)s1 [Compound 74, 2-(5-(2-Cyclopropylethyl)-3-(4-fluoro-3-((5-methylthiophen-2yl)ethynyl)phenyl)-4-(3-fluoro-4-sulfamoylbenzyl)-1H-pyrazol-1-yl)thiazole-4-carboxylic Acid] | – | – | – | – | – | effect on LDH activity in tumors (in words) [1]: moderate inhibition; AUC(0-t) [8]: 6650 ng·h/mL; clearance [8]: 74.7 mL/min/kg |
| NS(=O)(=O)c1ccc(Cc2c(-c3ccc(F)c(/C=C/C4CCCC4)c3)nn(-c3nc(C(=O)O)cs3)c2CC2CC2)cc1F [Compound 69, (E)-2-(3-(3-(2-Cyclopentylvinyl)-4-fluorophenyl)-5-(cyclopropylmethyl)-4-(3-fluoro-4-sulfamoylbenzyl)-1H-pyrazol-1-yl)thiazole-4-carboxylic Acid] | – | – | – | – | – | effect on LDH activity in tumors (in words) [1]: less effects; clearance at 24 h [8]: 74.7 mL/min/kg |
| Cc1ncc(C#Cc2cc(-c3nn(-c4nc(C(=O)O)cs4)c(CC4CC4)c3Cc3ccc(S(N)(=O)=O)c(F)c3)ccc2F)s1 [Compound 46, 2-(5-(Cyclopropylmethyl)-3-(4-fluoro-3-((2-methylthiazol-5-yl)-ethynyl)phenyl)-4-(3-fluoro-4-sulfamoylbenzyl)-1H-pyrazol-1-yl)-thiazole-4-carboxylic Acid] | – | – | – | – | – | clearance at 24 h [8]: 97 mL/min/kg |
| Cc1ccc(C#Cc2cc(-c3nn(-c4nc(C(=O)O)cs4)c(CC4CC4)c3Cc3ccc(S(N)(=O)=O)c(F)c3)ccc2F)o1 [Compound 44, 2-(5-(Cyclopropylmethyl)-3-(4-fluoro-3-((5-methylfuran-2-yl)-ethynyl)phenyl)-4-(3-fluoro-4-sulfamoylbenzyl)-1H-pyrazol-1-yl)-thiazole-4-carboxylic Acid] | – | – | – | – | – | clearance at 24 h [8]: 75 mL/min/kg |
| NS(=O)(=O)c1ccc(Cc2c(-c3ccc(F)c(C#CC4(F)COC4)c3)nn(-c3nc(C(=O)O)cs3)c2CC2CC2)cc1F [Compound 27, 2-(5-(Cyclopropylmethyl)-3-(4-fluoro-3-((3-fluorooxetan-3-yl)-ethynyl)phenyl)-4-(3-fluoro-4-sulfamoylbenzyl)-1H-pyrazol-1-yl)-thiazole-4-carboxylic Acid] | 7 | 126 | 1320 | 1050 | 2650 | IC50 [2]: 2260 nM |
| Cc1ccc(C#Cc2cccc(-c3nn(-c4nc(C(=O)O)cs4)c(CCC4CC4)c3Cc3ccc(S(N)(=O)=O)c(F)c3)c2)s1 [Compound 75, 2-(5-(2-Cyclopropylethyl)-4-(3-fluoro-4-sulfamoylbenzyl)-3-(3-((5-methylthiophen-2-yl)ethynyl)phenyl)-1H-pyrazol-1-yl)thiazole-4-carboxylic Acid] | – | – | – | – | – | clearance at 24 h [8]: 18.6 mL/min/kg |
| Cc1ccc(C#Cc2cccc(-c3nn(-c4nc(C(=O)O)cs4)c(C4CC45CC5)c3Cc3ccc(S(N)(=O)=O)c(F)c3)c2)s1 (stereo not shown) [Compound 87, 2-(4-(3-Fluoro-4-sulfamoylbenzyl)-3-(3-((5-methylthiophen-2-yl)ethynyl)phenyl)-5-(spiro[2.2]pentan-1-yl)-1H-pyrazol-1-yl)-thiazole-4-carboxylic Acid] | 122 | 175 | 485 | 459 | 526 | IC50 [2]: 469 nM |
| NS(=O)(=O)c1ccc(Cc2c(-c3ccc(F)c(C#CC4(O)COC4)c3)nn(-c3nc(C(=O)O)cs3)c2CC2CC2)cc1F [Compound 28, 2-(5-(Cyclopropylmethyl)-3-(4-fluoro-3-((3-hydroxyoxetan-3-yl)-ethynyl)phenyl)-4-(3-fluoro-4-sulfamoylbenzyl)-1H-pyrazol-1-yl)-thiazole-4-carboxylic Acid] | 6 | 1500 | 12200 | 4870 | 3590 | IC50 [2]: 2990 nM |

Now from value to compound, other results behind:

| IC50 [3] [nM] | IC50 [4] [nM] | IC50 [6] [nM] | IC50 [7] [nM] | Structure (SMILES) | IC50 [5] [nM] | other results |
| --- | --- | --- | --- | --- | --- | --- |
| 1170 | 1030 | 364 | 515 | Cc1ccc(C#Cc2cccc(-c3nn(-c4nc(C(=O)O)cs4)c(C4CC4C4CC4)c3Cc3ccc(S(N)(=O)=O)c(F)c3)c2)s1 (stereo not shown) [Compound 88, 2-(5-([1,1′-Bi(cyclopropan)]-2-yl)-4-(3-fluoro-4-sulfamoylbenzyl)-3-(3-((5-methylthiophen-2-yl)ethynyl)phenyl)-1H-pyrazol-1-yl)thiazole-4-carboxylic Acid] | 4690 | – |
| 5270 | 3180 | 1860 | 1220 | Cc1ccc(C#Cc2cccc(-c3nn(-c4nc(C(=O)O)cs4)c(C(C4CC4)C4CC4)c3Cc3ccc(S(N)(=O)=O)c(F)c3)c2)s1 [Compound 89, 2-(5-(Dicyclopropylmethyl)-4-(3-fluoro-4-sulfamoylbenzyl)-3-(3-((5-methylthiophen-2-yl)ethynyl)phenyl)-1H-pyrazol-1-yl)thiazole-4-carboxylic Acid] | 26400 | – |
| 4540 | 10800 | 18300 | 5140 | Cc1ccc(C#Cc2cccc(-c3nn(-c4nc(C(=O)O)cs4)c(C(C)(C)C4CC4)c3Cc3ccc(S(N)(=O)=O)c(F)c3)c2)s1 [Compound 85, 2-(5-(2-Cyclopropylpropan-2-yl)-4-(3-fluoro-4-sulfamoylbenzyl)-3-(3-((5-methylthiophen-2-yl)ethynyl)phenyl)-1H-pyrazol-1-yl)-thiazole-4-carboxylic Acid] | 5900 | – |
| 307 | 251 | 346 | 409 | Cc1ccc(C#Cc2cccc(-c3nn(-c4nc(C(=O)O)cs4)c(CC4(C)CC4)c3Cc3ccc(S(N)(=O)=O)c(F)c3)c2)s1 [Compound 86, 2-(4-(3-Fluoro-4-sulfamoylbenzyl)-5-((1-methylcyclopropyl)-methyl)-3-(3-((5-methylthiophen-2-yl)ethynyl)phenyl)-1H-pyrazol-1-yl)thiazole-4-carboxylic Acid] | 590 | – |
| 160 | 142 | 434 | 254 | Cc1cc(C#Cc2cccc(-c3nn(-c4nc(C(=O)O)cs4)c(CCC4CC4)c3Cc3ccc(S(N)(=O)=O)c(F)c3)c2)cs1 [Compound 77, 2-(5-(2-Cyclopropylethyl)-4-(3-fluoro-4-sulfamoylbenzyl)-3-(3-((5-methylthiophen-3-yl)ethynyl)phenyl)-1H-pyrazol-1-yl)thiazole-4-carboxylic Acid] | 197 | – |
| 874 | 708 | 685 | 1030 | Cc1ccc(C#Cc2cccc(-c3nn(-c4nc(C(=O)O)cs4)c(C(C)C4CC4)c3Cc3ccc(S(N)(=O)=O)c(F)c3)c2)s1 (stereo not shown) [Compound 84, 2-(5-(1-Cyclopropylethyl)-4-(3-fluoro-4-sulfamoylbenzyl)-3-(3-((5-methylthiophen-2-yl)ethynyl)phenyl)-1H-pyrazol-1-yl)thiazole-4-carboxylic Acid] | 968 | – |
